# Tested on: herpes simplex 1 virus (HSV-1)
# Assay: Plaque reduction test of antiviral activity in Vero cells
# Assay type: cell-based
# Conditions: Vero cells infected with 100-150 PFU; agar overlay with test compound; 37°C for 72 hours; plaque count
# Procedure: Antiviral activity against herpes simplex 1 virus (HSV-1), which is a DNA virus, was tested by the following method. Vero cells (originating from kidney cells of African Green Monkey) spread in a monolayer onto 6-wells multiplate were infected with 100-150 PFU (Plaque Forming Units) of the virus. After a 1-hour adsorption period at 37°C, an agar medium (Eagle's minimum essential medium containing 1.5% agar) containing respective concentrations of the test compound (obtained in Example 4) was overlaid thereonto, and cultured in a 5% (V/V) carbon dioxide incubator at 37°C for 72 hours. The number of plaques formed was counted, from which the 50% inhibition concentration (IC₅₀) was determined.
row,SMILES,IC₅₀ (µg/ml) (HSV-1)
1,"CC(O)C1C(CO)CC1n1cnc2c(=O)[nH]c(N)nc21 (single isomer, unassigned) [4-2, 9-[(1β,2α,3β)-2-(1-hydroxyethyl)-3-hydroxymethyl-1-cyclobutyl]guanine-(2)]",0.163 µg/mL
2,"CC(O)C1C(CO)CC1n1cnc2c(=O)[nH]c(N)nc21 (single isomer, unassigned) [4-1, 9-[(1β,2α,3β)-2-(1-hydroxyethyl)-3-hydroxymethyl-1-cyclobutyl]guanine-(1)]",45.2 µg/mL

# — patent EP0481320A1, “Novel cyclobutane derivatives” (NIPPON KAYAKU KABUSHIKI KAISHA, priority 1990, dated 1992)
